Assay results taken from patent publication US9889104B2, “Agent for treating diabetes” (NISHIZAKI BIOINFORMATION RESEARCH INSTITUTE, priority 2014, dated 2018).

Key:
[1] = tested on: type 2 diabetes model mouse (C57BL/KsJ-lepr^db/lepr^db mouse); assay: Oral glucose tolerance test in type 2 diabetes model mouse; assay type: in vivo; conditions: DCP-LA 0.001, 0.01, 0.1 mg/kg orally 30 min before glucose 2 g/kg, 0-90 min, FIG. 3B
Procedure: As type 2 diabetes model mouse, C57BL/KsJ-lepr^db/lepr^db mouse (female, 8-week-old) (CLEA Japan; Tokyo, Japan) was used.
(§1) OGTT was performed using the mouse starved for 12 hr. Glucose (2 g/ml/kg body weight) was administered by gavage, and the time point thereof was taken as 0 h. DCP-LA (0, 0.001, 0.01, 0.1 mg/kg) was orally administered 30 min before administration of glucose. The blood (10 μl) was collected from the tail vein at the time points of 0, 30, 60, and 90 min, and each plasma sample which was labeled with ABEE and prepared from the obtained blood was loaded on high performance liquid chromatography (HPLC) system (LC-10ATvp; Shimadzu Co., Kyoto, Japan). The glucose concentration was calculated from a peak area/concentration analytical curve prepared using the standard glucose solution.

[2] = tested on: type 1 diabetes model mouse (STZ-treated C57BL/6J mouse); assay: Oral glucose tolerance test in type 1 diabetes model mouse; assay type: in vivo; conditions: DCP-LA 0.001, 0.01, 0.1 mg/kg orally 30 min before glucose 2 g/kg, 0-90 min, FIG. 3A
Procedure: Type 1 diabetes model mouse was prepared by intraperitoneal administration of streptozotocin (STZ; 250 mg/kg) to C57BL/6J mouse (8-week-old) (Japan SLC Inc.; Shizuoka, Japan). After 4 days from the STZ administration, an oral glucose tolerance test (OGTT) was performed.
as §1

GLUT4 = GLUT4 mobilization monitoring (Western blotting with anti-c-myc antibody); assay type: cell-based; conditions: 100 nM DCP-LA, 20 min; c-myc signal in cellular membrane fraction/total cell; FIG. 2
Procedure: (§2) 3T3L1-GLUT4myc fibroblast strain expressing GLUT4myc was used. The cells are constructed by inserting human c-MYC epitope (14 amino acids) into the first ectodomain. It is possible to track transport of GLUT4 onto cell membrane surface by using an antic-myc antibody.
The cells were cultured in Dulbecco's Modified Eagles Medium (DMEM) added with 10% (v/v) bovine serum, penicillin (final concentration, 100 U/ml) and streptomycin (final concentration, 0.1 mg/ml) in a humid environment under 5% CO2 and 95% air at 37° C. When the cells reached confluence (day 0), the medium was exchanged with DMEM added with 10% (v/v) fetal bovine serum (FBS), 1 μM dexamethasone, 0.5 mM 3-isobutyl-methyl-xanthine and 0.1 mg/ml insulin to allow for differentiation from fibroblast into adipocyte. The medium was exchanged with DMEM added with 10% (v/v) FBS on day 3, day 7 and day 11. On day 14, the cell differentiated into adipocyte were used for the experiment. […]
The protein concentration of each fraction was measured using BCA protein assay kit (Thermo Fisher Scientific, Waltham, Mass., USA). […] The immunoreactivity was detected using ECL kit (Invitrogen), and visualized using a chemical luminescence detection system (chemiluminescence detection system; GE Healthcare, Piscataway, N.J., USA). The signal density was measured using an image analysis software (Image Gauge software; GE Healthcare). […]

[3] = tested on: 3T3L1-GLUT4myc adipocytes; assay: Glucose uptake assay in 3T3L1-GLUT4myc adipocytes; assay type: cell-based; conditions: 2 hr
Procedure: as §2
The cells were cultured in Dulbecco's Modified Eagles Medium (DMEM) added with 10% (v/v) bovine serum, penicillin (final concentration, 100 U/ml) and streptomycin (final concentration, 0.1 mg/ml) in a humid environment under 5% CO2 and 95% air at 37° C. […]
3T3L1-GLUT4myc adipocytes were incubated in Krebs-Ringer-HEPES buffer [136 mM NaCl, 4.7 mM KCl, 1.25 mM CaCl2, 1.25 mM MgSO4 and 20 mM HEPES, pH 7.5] containing 0.2% (w/v) bovine serum albumin (BSA) and added with 10 mM glucose at 37° C. for […]. […] ABEE-labeled glucose was detected using a fluorescence detector at an excitation wavelength 305 nm and a fluorescence wavelength 360 nm. The amount of glucose uptaken into the cells after incubation for 2 hr is calculated by subtracting the extracellular glucose concentration from the initial extracellular glucose concentration (10 mM).
3T3L1-GLUT4myc adipocytes were incubated in glucose-containing (10 mM) PBS in the presence or absence of a given concentration of DCP-LA for 2 hr, and extracellular glucose concentration was measured by HPLC. […]

For `CCCCCC1CC1CC1CC1CCCCCCCC(=O)O` (centres unmarked) [DCP-LA, 8-[2-(2-pentyl-cyclopropylmethyl)-cyclopropyl]-octanoic acid], the blood glucose level [1] was “dose-dependently lower the blood glucose level”, the blood glucose level [2] was “dose-dependently lower the blood glucose level” and the “transport of GLUT4 onto the cellular membrane” value (GLUT4) was “not promoted significantly”. The “sugar uptake promoting action in the presence of PKCε inhibitor GF109203X” value ([3]; 0.1 μM DCP-LA with 0.1 μM GF109203X, FIG. 1B) was “not inhibited” and the “glucose uptake into the cells” value ([3]; 3T3L1-GLUT4myc adipocytes, 10 mM glucose PBS, given concentrations of DCP-LA, HPLC, FIG. 1A) was “promote sugar uptake into the adipocytes in a bell-shaped concentration-dependent manner”.
